Laboratory results published in patent US20240393292A1, “ALLERGY ANTIGEN AND EPITOPE THEREOF” (HOYU CO., LTD., priority 2019, published 2024).
Each block holds one substance with its values, some of them ahead of it.

Tested on: IgE antibodies from patients
Test: Wheat epitope mapping (2): overlapping 10-amino-acid peptide fragments shifted by one amino acid;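 further: key of grades: preferably = shorter partial sequence still acting as epitope; more preferably = sequence improving IgE binding; key = particularly important sequence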
Assay type: binding, human
Method in brief: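 Residual binding was banded as <30% none, 30–<50% poor, 50–<70% somewhat poor and ≥70% retained, relative to the parent overlapping sequence set to 100%. Values were chemiluminescent IgE signals from patient sera after subtracting secondary-antibody-only controls. The peptides were spot-synthesised 10-mers shifted by one amino acid.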

[1] = serum of patient G5 (adult, general immediate type allergy to wheat)
[2] = serum of patient G6 (adult, general immediate type allergy to wheat)
[3] = serum of patient G9 (adult, general immediate type allergy to wheat)

epitope sequence binding to IgE antibody, rank (Key/Preferably/More preferably) (serum of patient P9 (WDEIA)): Preferably
Substance: 1843 (TVRTLQR; REGION 1..7: note = epitope) [compound 1843]

epitope sequence binding to IgE antibody, rank (Key/Preferably/More preferably) (serum of patient P12 (WDEIA)): Preferably
Substance: 1845 (YTVRTLQR; REGION 1..8: note = epitope) [compound 1845]

epitope sequence binding to IgE antibody, rank (Key/Preferably/More preferably) (serum of patient P24 (WDEIA)): Key
Substance: 1862 (VRTLQ; REGION 1..5: note = epitope) [compound 1862]

epitope sequence binding to IgE antibody, rank (Key/Preferably/More preferably) (serum of patient P25 (WDEIA)): Key
Substance: 1864 (TVRTLQR; REGION 1..7: note = epitope) [compound 1864]

epitope sequence binding to IgE antibody, rank (Key/Preferably/More preferably) (serum of patient P28 (WDEIA)): Key
Substance: 1868 (TVRTLQ; REGION 1..6: note = epitope) [compound 1868]

epitope sequence binding to IgE antibody, rank (Key/Preferably/More preferably) (serum of patient P29 (WDEIA)): More preferably
Substance: 1869 (YTVRTLQRT; REGION 1..9: note = epitope) [compound 1869]

epitope sequence binding to IgE antibody, rank (Key/Preferably/More preferably) (serum of patient P29 (WDEIA)): Preferably
Substance: 1870 (YTVRTLQR; REGION 1..8: note = epitope) [compound 1870]

epitope sequence binding to IgE antibody, rank (Key/Preferably/More preferably) (serum of patient P30 (WDEIA)): Key
Substance: 1873 (TVRTLQR; REGION 1..7: note = epitope) [compound 1873]

epitope sequence binding to IgE antibody, rank (Key/Preferably/More preferably) (serum of patient P31 (WDEIA)): More preferably
Substance: 1875 (TVRTLQRTV; REGION 1..9: note = epitope) [compound 1875]

epitope sequence binding to IgE antibody, rank (Key/Preferably/More preferably) (serum of patient P34 (WDEIA)): Key
Substance: 1883 (VRTLQ; REGION 1..5: note = epitope) [compound 1883]

epitope sequence binding to IgE antibody, rank (Key/Preferably/More preferably) [1]: Preferably
Substance: 1887 (YTVRTLQRTV; REGION 1..10: note = epitope) [compound 1887]

epitope sequence binding to IgE antibody, rank (Key/Preferably/More preferably) [1]: Key
Substance: 1888 (TVRTLQRT; REGION 1..8: note = epitope) [compound 1888]

epitope sequence binding to IgE antibody, rank (Key/Preferably/More preferably) (serum of patient P2 (WDEIA)): Preferably
Substance: 1896 (VPLVQQQ; REGION 1..7: note = epitope) [compound 1896]

epitope sequence binding to IgE antibody, rank (Key/Preferably/More preferably) (serum of patient P2 (WDEIA)): Key
Substance: 1897 (VPLVQQ; REGION 1..6: note = epitope) [compound 1897]

epitope sequence binding to IgE antibody, rank (Key/Preferably/More preferably) (serum of patient P2 (WDEIA)): Key
Substance: 1898 (QQFPGQQQ; REGION 1..8: note = epitope) [compound 1898]

epitope sequence binding to IgE antibody, rank (Key/Preferably/More preferably) (serum of patient P3 (WDEIA)): Key
Substance: 1902 (QQFPGQQ; REGION 1..7: note = epitope) [compound 1902]

epitope sequence binding to IgE antibody, rank (Key/Preferably/More preferably) (serum of patient P4 (WDEIA)): Key
Substance: 1905 (VPLVQ; REGION 1..5: note = epitope) [compound 1905]

epitope sequence binding to IgE antibody, rank (Key/Preferably/More preferably) (serum of patient P7 (WDEIA)): Key
Substance: 1910 (QFPGQQQ; REGION 1..7: note = epitope) [compound 1910]

epitope sequence binding to IgE antibody, rank (Key/Preferably/More preferably) (serum of patient P8 (WDEIA)): Key
Substance: 1914 (QQFPGQQ; REGION 1..7: note = epitope) [compound 1914]

Continued, substance first:

Substance: 1844 (TVRTLQ; REGION 1..6: note = epitope) [compound 1844]
epitope sequence binding to IgE antibody, rank (Key/Preferably/More preferably) (serum of patient P9 (WDEIA)): Key

Substance: 1846 (TVRTLQR; REGION 1..7: note = epitope) [compound 1846]
epitope sequence binding to IgE antibody, rank (Key/Preferably/More preferably) (serum of patient P12 (WDEIA)): Key

Substance: 1848 (YTVRTLQRT; REGION 1..9: note = epitope) [compound 1848]
epitope sequence binding to IgE antibody, rank (Key/Preferably/More preferably) (serum of patient P16 (WDEIA)): More preferably

Substance: 1849 (TVRTLQR; REGION 1..7: note = epitope) [compound 1849]
epitope sequence binding to IgE antibody, rank (Key/Preferably/More preferably) (serum of patient P16 (WDEIA)): Preferably

Substance: 1850 (VRTLQ; REGION 1..5: note = epitope) [compound 1850]
epitope sequence binding to IgE antibody, rank (Key/Preferably/More preferably) (serum of patient P16 (WDEIA)): Key

Substance: 1852 (YTVRTLQRT; REGION 1..9: note = epitope) [compound 1852]
epitope sequence binding to IgE antibody, rank (Key/Preferably/More preferably) (serum of patient P17 (WDEIA)): More preferably

Substance: 1853 (TVRTLQR; REGION 1..7: note = epitope) [compound 1853]
epitope sequence binding to IgE antibody, rank (Key/Preferably/More preferably) (serum of patient P17 (WDEIA)): Preferably

Substance: 1854 (RTLQR; REGION 1..5: note = epitope) [compound 1854]
epitope sequence binding to IgE antibody, rank (Key/Preferably/More preferably) (serum of patient P17 (WDEIA)): Key

Substance: 1856 (YTVRTLQRT; REGION 1..9: note = epitope) [compound 1856]
epitope sequence binding to IgE antibody, rank (Key/Preferably/More preferably) (serum of patient P18 (WDEIA)): More preferably

Substance: 1857 (TVRTLQR; REGION 1..7: note = epitope) [compound 1857]
epitope sequence binding to IgE antibody, rank (Key/Preferably/More preferably) (serum of patient P18 (WDEIA)): Preferably

Substance: 1858 (RTLQ; REGION 1..4: note = epitope) [compound 1858]
epitope sequence binding to IgE antibody, rank (Key/Preferably/More preferably) (serum of patient P18 (WDEIA)): Key

Substance: 1859 (YTVRTLQR; REGION 1..8: note = epitope) [compound 1859]
epitope sequence binding to IgE antibody, rank (Key/Preferably/More preferably) (serum of patient P19 (WDEIA)): Preferably

Substance: 1860 (TVRTLQ; REGION 1..6: note = epitope) [compound 1860]
epitope sequence binding to IgE antibody, rank (Key/Preferably/More preferably) (serum of patient P19 (WDEIA)): Key

Substance: 1861 (TVRTLQRT; REGION 1..8: note = epitope) [compound 1861]
epitope sequence binding to IgE antibody, rank (Key/Preferably/More preferably) (serum of patient P24 (WDEIA)): Preferably

Substance: 1863 (VIAEYTVRTL; REGION 1..10: note = epitope) [compound 1863]
epitope sequence binding to IgE antibody, rank (Key/Preferably/More preferably) (serum of patient P25 (WDEIA)): Key

Substance: 1865 (TVRTLQR; REGION 1..7: note = epitope) [compound 1865]
epitope sequence binding to IgE antibody, rank (Key/Preferably/More preferably) (serum of patient P26 (WDEIA)): Key

Substance: 1866 (TVRTLQR; REGION 1..7: note = epitope) [compound 1866]
epitope sequence binding to IgE antibody, rank (Key/Preferably/More preferably) (serum of patient P27 (WDEIA)): Key

Substance: 1867 (TVRTLQR; REGION 1..7: note = epitope) [compound 1867]
epitope sequence binding to IgE antibody, rank (Key/Preferably/More preferably) (serum of patient P28 (WDEIA)): Preferably

Substance: 1871 (VRTLQR; REGION 1..6: note = epitope) [compound 1871]
epitope sequence binding to IgE antibody, rank (Key/Preferably/More preferably) (serum of patient P29 (WDEIA)): Key

Substance: 1872 (YTVRTLQRT; REGION 1..9: note = epitope) [compound 1872]
epitope sequence binding to IgE antibody, rank (Key/Preferably/More preferably) (serum of patient P30 (WDEIA)): Preferably

Substance: 1876 (VRTLQRT; REGION 1..7: note = epitope) [compound 1876]
epitope sequence binding to IgE antibody, rank (Key/Preferably/More preferably) (serum of patient P31 (WDEIA)): Preferably

Substance: 1877 (TLQR; REGION 1..4: note = epitope) [compound 1877]
epitope sequence binding to IgE antibody, rank (Key/Preferably/More preferably) (serum of patient P31 (WDEIA)): Key

Substance: 1878 (TVRTLQRT; REGION 1..8: note = epitope) [compound 1878]
epitope sequence binding to IgE antibody, rank (Key/Preferably/More preferably) (serum of patient P32 (WDEIA)): Preferably

Substance: 1879 (TVRTLQ; REGION 1..6: note = epitope) [compound 1879]
epitope sequence binding to IgE antibody, rank (Key/Preferably/More preferably) (serum of patient P32 (WDEIA)): Key

Substance: 1880 (TVRTLQRT; REGION 1..8: note = epitope) [compound 1880]
epitope sequence binding to IgE antibody, rank (Key/Preferably/More preferably) (serum of patient P33 (WDEIA)): Preferably

Substance: 1881 (TVRTLQR; REGION 1..7: note = epitope) [compound 1881]
epitope sequence binding to IgE antibody, rank (Key/Preferably/More preferably) (serum of patient P33 (WDEIA)): Key

Substance: 1882 (TVRTLQRT; REGION 1..8: note = epitope) [compound 1882]
epitope sequence binding to IgE antibody, rank (Key/Preferably/More preferably) (serum of patient P34 (WDEIA)): Preferably

Substance: 1884 (TVRTLQRT; REGION 1..8: note = epitope) [compound 1884]
epitope sequence binding to IgE antibody, rank (Key/Preferably/More preferably) (serum of patient P35 (WDEIA)): Preferably

Substance: 1885 (RTLQ; REGION 1..4: note = epitope) [compound 1885]
epitope sequence binding to IgE antibody, rank (Key/Preferably/More preferably) (serum of patient P35 (WDEIA)): Key

Substance: 1886 (TVRTLQRT; REGION 1..8: note = epitope) [compound 1886]
epitope sequence binding to IgE antibody, rank (Key/Preferably/More preferably) (serum of patient P36 (WDEIA)): Key

Substance: 1889 (TVRTLQR; REGION 1..7: note = epitope) [compound 1889]
epitope sequence binding to IgE antibody, rank (Key/Preferably/More preferably) [2]: Preferably

Substance: 1890 (RTLQ; REGION 1..4: note = epitope) [compound 1890]
epitope sequence binding to IgE antibody, rank (Key/Preferably/More preferably) [2]: Key

Substance: 1891 (YTVRTL; REGION 1..6: note = epitope) [compound 1891]
epitope sequence binding to IgE antibody, rank (Key/Preferably/More preferably) (serum of patient G7 (adult, general immediate type allergy to wheat)): Key

Substance: 1893 (YTVRTLQRT; REGION 1..9: note = epitope) [compound 1893]
epitope sequence binding to IgE antibody, rank (Key/Preferably/More preferably) [3]: Preferably

Substance: 1894 (VRTLQ; REGION 1..5: note = epitope) [compound 1894]
epitope sequence binding to IgE antibody, rank (Key/Preferably/More preferably) [3]: Key

Substance: 1900 (QVPLVQQ; REGION 1..7: note = epitope) [compound 1900]
epitope sequence binding to IgE antibody, rank (Key/Preferably/More preferably) (serum of patient P3 (WDEIA)): Preferably

Substance: 1901 (VPLVQ; REGION 1..5: note = epitope) [compound 1901]
epitope sequence binding to IgE antibody, rank (Key/Preferably/More preferably) (serum of patient P3 (WDEIA)): Key

Substance: 1904 (QVPLVQQ; REGION 1..7: note = epitope) [compound 1904]
epitope sequence binding to IgE antibody, rank (Key/Preferably/More preferably) (serum of patient P4 (WDEIA)): Preferably

Substance: 1906 (QFPGQQQ; REGION 1..7: note = epitope) [compound 1906]
epitope sequence binding to IgE antibody, rank (Key/Preferably/More preferably) (serum of patient P4 (WDEIA)): Key

Substance: 1908 (QVPLVQQ; REGION 1..7: note = epitope) [compound 1908]
epitope sequence binding to IgE antibody, rank (Key/Preferably/More preferably) (serum of patient P7 (WDEIA)): Preferably

Substance: 1909 (VPLVQ; REGION 1..5: note = epitope) [compound 1909]
epitope sequence binding to IgE antibody, rank (Key/Preferably/More preferably) (serum of patient P7 (WDEIA)): Key

Substance: 1912 (QVPLVQQQ; REGION 1..8: note = epitope) [compound 1912]
epitope sequence binding to IgE antibody, rank (Key/Preferably/More preferably) (serum of patient P8 (WDEIA)): Preferably

Substance: 1913 (QVPLVQQ; REGION 1..7: note = epitope) [compound 1913]
epitope sequence binding to IgE antibody, rank (Key/Preferably/More preferably) (serum of patient P8 (WDEIA)): Key
